Test results reported in patent US10729680B2, “5-substituted 2-(morpholin-4-yl)-1,7-naphthyridines” (BAYER PHARMA AKTIENGESELLSCHAFT, priority 2016, dated 2020).

Assays:
[1] = target: full-length human ATR protein (ATR/ATRIP) (Homo sapiens (Human), UniProt Q13535); assay: Binding Assay ATR (TR-FRET, tracer A displacement); conditions: displacement of fluorescent tracer A from GST-ATR/ATRIP
From the text: To determine of binding activity of the test compounds, full-length human ATR protein was expressed and purified together with ATRIP as described above. Furthermore, a fluorescently labelled compound (tracer A as described above) was used as a tracer molecule. Detection of the binding event of the tracer was achieved by time-resolved fluorescence energy transfer (TR-FRET). We used an anti-GST-Terbium antibody (CisBio) that binds to the GST-tag at the N-terminus of ATR-kinase. Excitation of Terbium with 337 nm light results in emission of fluorescent light with 545 nm. In case a tetrameric complex has formed (antiGST-Tb+GST-ATR+Strp2-ATRIP+tracer), part of the energy will be transferred from the Terbium to the fluorophore that itself emits light of 570 nm. Displacement of the fluorescent tracer by a test compound leads to a reduction of the TR-FRET-signal.
For the assay 50 nl of a 100-fold concentrated solution of the test compound in DMSO was pipetted into a black low volume 384 well microtiter plate (MTP, Greiner Bio-One, Frickenhausen, Germany). To prepare the ATR-working solution, ATR/ATRIP stock solution was diluted in assay buffer [50 mM HEPES (pH 7.0), 10 mM MgCl2, 1 mM DTT, 0.01% (w/v) Igepal, 0.01% (w/v) BSA] to 4.2 nM protein concentration (concentration may vary from lot to lot of protein preparation). AntiGST-Tb antibody was diluted to 4.2 nM. The ATR-working solution was incubated for 30 min at 22° C. prior to dispensing to pre-form the complex of antiGST-Tb+GST-ATR+ATRIP. Then, 3 μl of the ATR-working solution were added to the test compound and the mixture was incubated for 10 min at 22° C. to allow pre-binding of the test compounds to ATR/ATRIP. Then, 2 μl of a 100 nM solution of tracer A in assay buffer were added to the ATR-working solution. The resulting mixture was incubated for 30 min at 22° C. The measurement of the TR-FRET signal was performed in a standard HTRF-compatible MTP reader instrument (e.g. BMG Pherastar) by recording the fluorescence emissions at 545 nm and 570 nm after excitation at 337-350 nm. The ratio between emission at 570 nm divided by emission at 545 nm was calculated to give the well ratio. The experimental data (well ratios) were normalised by the following way: positive control contained ATR-working solution plus tracer A solution (=0% inhibition), the negative control contained all components except GST-ATR/ATRIP (=100% inhibition). Usually the compounds were tested on the same MTP in 11 different concentrations in the range of 20 μM to 0.1 nM (20 μM, 5.9 μM, 1.7 μM, 0.51 μM, 0.15 μM, 44 nM, 13 nM, 3.8 nM, 1.1 nM, 0.33 nM and 0.1 nM). The dilution series were prepared separately before the assay on the level of the 100 fold concentrated solutions in DMSO by serial 1:3.4 dilutions in duplicate values for each concentration. IC50 values were calculated by a 4 parameter fit using standard software (GraphPad prism or equivalent).

HeLa cells = assay: Proliferation assay (HeLa, crystal violet); assay type: cell-based; conditions: Homo sapiens, 96 h, 4 days incubation, crystal violet staining, read-out: Inhibition of HeLa cell proliferation
Protocol: Human tumour cells were originally obtained from the American Type Culture Collection (ATCC), the Deutsche Sammlung von Mikroorganismen und Zellkulturen (DSMZ, German Collection of Microorganisms and Cell Cultures) or Epo GmbH, Berlin.
Adherently growing cells (HeLa, HeLa-MaTu-ADR, HT-144, Lovo, HT-29, NCI-H460, DU145, Caco2, B16F10) were plated out in a density of 1500-4000 cells/measurement point, depending on the rate of growth of the cell line, in a 96-well multititre plate in 200 μl of growth medium (DMEM/HAMS F12, 2 mM L-glutamine, 10% foetal calf serum). After 24 hours, the cells of one plate (zero plate) were dyed with crystal violet (see below), whereas the medium of the other plates was replaced with fresh culture medium (200 μl) to which the test substances were added in various concentrations (0 μM, and also in the range of 0.001-10 μM; the final concentration of the solvent dimethyl sulphoxide was 0.1 or 0.5%). The cells were incubated for 4 days in the presence of the test substances. Cell proliferation was determined by staining the cells with crystal violet: the cells were fixed at room temperature for 15 min by adding 20 μl/measurement point of an 11% strength glutaraldehyde solution. After washing the fixed cells three times with water, the plates were dried at room temperature. The cells were stained by adding 100 μl/measurement point of a 0.1% strength crystal violet solution (pH adjusted to pH 3 by adding acetic acid). After washing the cells three times with water, the plates were dried at room temperature. The dye was dissolved by adding 100 μl/measurement point of a 10% strength acetic acid solution. Absorbance was determined photometrically at a wavelength of 595 nm. The percentage change in cell growth was calculated by normalizing the measured values to the absorbance values of the zero plate (=0%) and the absorbance of the untreated (0 μM) cells (=100%). The IC50 values were determined by means of a four parameter fit.
Inhibition of proliferation of HeLa cells by compounds according to the present invention, determined as described above. All IC50 (inhibitory concentration at 50% of maximal effect) values are indicated in M, “n.t.” means that the compounds have not been tested in the respective assay.

Chain of full-length human ATR protein (ATR/ATRIP) (Q13535 other isoform, or with tags, fused parts or gaps): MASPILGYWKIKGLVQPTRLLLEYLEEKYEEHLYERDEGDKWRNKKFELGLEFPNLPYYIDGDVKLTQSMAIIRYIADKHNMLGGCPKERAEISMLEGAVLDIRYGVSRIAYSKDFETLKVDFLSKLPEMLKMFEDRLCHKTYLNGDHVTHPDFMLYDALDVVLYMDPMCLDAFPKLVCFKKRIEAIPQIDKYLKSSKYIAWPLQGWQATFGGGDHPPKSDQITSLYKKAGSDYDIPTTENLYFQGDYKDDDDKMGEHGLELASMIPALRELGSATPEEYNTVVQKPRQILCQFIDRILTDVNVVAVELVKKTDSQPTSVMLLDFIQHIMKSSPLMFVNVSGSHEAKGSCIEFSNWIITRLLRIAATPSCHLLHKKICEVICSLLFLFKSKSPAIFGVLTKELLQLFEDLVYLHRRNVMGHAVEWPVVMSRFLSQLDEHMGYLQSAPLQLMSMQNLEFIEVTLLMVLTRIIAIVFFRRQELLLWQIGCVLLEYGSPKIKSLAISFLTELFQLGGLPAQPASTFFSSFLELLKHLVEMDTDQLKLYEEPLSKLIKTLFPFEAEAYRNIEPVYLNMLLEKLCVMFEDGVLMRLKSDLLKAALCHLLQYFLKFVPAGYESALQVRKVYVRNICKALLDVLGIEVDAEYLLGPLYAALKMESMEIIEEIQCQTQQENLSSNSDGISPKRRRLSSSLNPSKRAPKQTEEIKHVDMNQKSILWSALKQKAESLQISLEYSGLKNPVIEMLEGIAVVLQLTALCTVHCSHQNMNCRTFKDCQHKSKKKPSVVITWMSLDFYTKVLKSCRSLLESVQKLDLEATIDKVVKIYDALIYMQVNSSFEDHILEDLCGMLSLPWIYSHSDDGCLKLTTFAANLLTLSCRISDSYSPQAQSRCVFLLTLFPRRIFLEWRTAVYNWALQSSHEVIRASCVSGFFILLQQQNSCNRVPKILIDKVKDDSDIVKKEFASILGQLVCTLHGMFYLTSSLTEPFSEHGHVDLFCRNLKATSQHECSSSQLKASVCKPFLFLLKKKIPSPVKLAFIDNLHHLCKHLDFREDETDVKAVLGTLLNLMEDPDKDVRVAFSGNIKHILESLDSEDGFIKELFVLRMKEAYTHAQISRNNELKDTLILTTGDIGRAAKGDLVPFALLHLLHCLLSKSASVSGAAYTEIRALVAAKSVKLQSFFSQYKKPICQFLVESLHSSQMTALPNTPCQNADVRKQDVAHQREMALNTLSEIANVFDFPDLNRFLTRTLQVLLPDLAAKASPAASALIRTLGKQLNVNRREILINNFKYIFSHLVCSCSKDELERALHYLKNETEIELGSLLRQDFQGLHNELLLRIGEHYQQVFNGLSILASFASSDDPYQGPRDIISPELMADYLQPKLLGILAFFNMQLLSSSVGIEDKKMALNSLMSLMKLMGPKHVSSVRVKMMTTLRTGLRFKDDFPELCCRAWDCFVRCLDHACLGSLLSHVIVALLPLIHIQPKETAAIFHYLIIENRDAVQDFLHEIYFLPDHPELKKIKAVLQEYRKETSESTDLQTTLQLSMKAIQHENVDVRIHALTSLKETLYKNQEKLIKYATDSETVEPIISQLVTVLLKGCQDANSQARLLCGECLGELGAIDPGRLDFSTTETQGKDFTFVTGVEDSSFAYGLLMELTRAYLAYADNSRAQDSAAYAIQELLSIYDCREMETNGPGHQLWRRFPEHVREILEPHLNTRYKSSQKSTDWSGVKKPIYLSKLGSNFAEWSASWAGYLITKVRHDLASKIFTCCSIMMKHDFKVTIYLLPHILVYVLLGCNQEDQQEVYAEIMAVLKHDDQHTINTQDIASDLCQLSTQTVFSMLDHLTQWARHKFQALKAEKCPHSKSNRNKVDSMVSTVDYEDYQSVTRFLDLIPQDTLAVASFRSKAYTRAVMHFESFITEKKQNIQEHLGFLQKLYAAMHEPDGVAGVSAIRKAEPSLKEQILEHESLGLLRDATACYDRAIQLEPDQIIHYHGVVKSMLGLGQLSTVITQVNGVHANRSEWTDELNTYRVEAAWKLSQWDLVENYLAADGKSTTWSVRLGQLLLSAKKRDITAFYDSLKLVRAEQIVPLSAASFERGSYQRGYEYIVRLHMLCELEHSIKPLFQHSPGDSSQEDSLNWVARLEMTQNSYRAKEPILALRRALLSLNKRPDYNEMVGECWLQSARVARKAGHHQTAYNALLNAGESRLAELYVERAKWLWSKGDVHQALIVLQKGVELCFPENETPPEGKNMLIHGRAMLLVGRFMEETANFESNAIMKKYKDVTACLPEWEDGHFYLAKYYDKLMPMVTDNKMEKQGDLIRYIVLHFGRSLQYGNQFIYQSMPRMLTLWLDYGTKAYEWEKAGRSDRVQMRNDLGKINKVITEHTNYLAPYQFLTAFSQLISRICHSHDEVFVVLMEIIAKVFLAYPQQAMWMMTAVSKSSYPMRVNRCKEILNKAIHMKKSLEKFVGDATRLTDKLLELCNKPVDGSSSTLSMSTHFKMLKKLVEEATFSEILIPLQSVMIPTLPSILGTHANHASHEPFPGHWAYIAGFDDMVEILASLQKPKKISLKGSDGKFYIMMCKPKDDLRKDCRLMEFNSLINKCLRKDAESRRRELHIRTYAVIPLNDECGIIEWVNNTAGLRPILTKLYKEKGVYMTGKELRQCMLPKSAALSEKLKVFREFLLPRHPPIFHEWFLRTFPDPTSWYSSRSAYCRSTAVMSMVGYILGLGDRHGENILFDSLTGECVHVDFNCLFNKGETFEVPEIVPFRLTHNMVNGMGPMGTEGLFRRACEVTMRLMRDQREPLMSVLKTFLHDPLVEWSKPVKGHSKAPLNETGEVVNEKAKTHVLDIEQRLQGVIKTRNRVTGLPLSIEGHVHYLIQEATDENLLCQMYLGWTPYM
Chain of full-length human ATR protein (ATR/ATRIP) (Q8WXE1 other isoform, or with tags, fused parts or gaps partner): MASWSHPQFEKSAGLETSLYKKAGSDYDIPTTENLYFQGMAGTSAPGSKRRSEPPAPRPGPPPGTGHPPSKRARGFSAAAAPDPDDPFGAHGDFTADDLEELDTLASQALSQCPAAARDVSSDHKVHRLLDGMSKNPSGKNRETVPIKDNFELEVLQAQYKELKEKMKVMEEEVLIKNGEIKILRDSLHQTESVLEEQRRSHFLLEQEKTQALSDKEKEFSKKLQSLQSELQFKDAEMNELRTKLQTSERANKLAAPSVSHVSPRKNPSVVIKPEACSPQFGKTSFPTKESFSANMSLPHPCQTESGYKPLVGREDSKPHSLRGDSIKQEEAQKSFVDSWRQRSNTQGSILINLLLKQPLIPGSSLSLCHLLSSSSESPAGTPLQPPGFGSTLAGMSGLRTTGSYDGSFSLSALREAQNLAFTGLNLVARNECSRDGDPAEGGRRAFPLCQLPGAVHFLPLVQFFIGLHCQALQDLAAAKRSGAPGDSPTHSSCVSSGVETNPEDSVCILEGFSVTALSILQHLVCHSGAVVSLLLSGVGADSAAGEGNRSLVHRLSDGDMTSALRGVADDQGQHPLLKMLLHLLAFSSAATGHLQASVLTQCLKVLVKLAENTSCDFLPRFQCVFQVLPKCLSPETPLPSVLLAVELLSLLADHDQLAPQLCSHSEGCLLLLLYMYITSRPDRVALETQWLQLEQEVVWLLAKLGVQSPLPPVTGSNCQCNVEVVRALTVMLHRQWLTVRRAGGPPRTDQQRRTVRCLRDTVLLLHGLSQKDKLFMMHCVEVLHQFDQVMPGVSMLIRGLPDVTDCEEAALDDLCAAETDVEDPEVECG

| SMILES | IC50 [1] [µM] | IC50 (HeLa cells) [µM] |
| --- | --- | --- |
| Cc1cnc(-c2ccn[nH]2)c2nc(N3CCOC[C@H]3C)cc(OC(C)C)c12 [Example 1, 5-methyl-2-[(3R)-3-methylmorpholin-4-yl]-4-(propan-2-yloxy)-8-(1H-pyrazol-5-yl)-1,7-naphthyridine] | 0.0259 | 0.498 |
| Cc1cnc(-c2ccn[nH]2)c2nc(N3CCOC[C@H]3C)cc(-c3ccnn3C)c12 [Example 2, 5-methyl-2-[(3R)-3-methylmorpholin-4-yl]-4-(1-methyl-1H-pyrazol-5-yl)-8-(1H-pyrazol-5-yl)-1,7-naphthyridine] | 0.00602 | 0.0634 |
| Cc1cnc(-c2ccn[nH]2)c2nc(N3CCOC[C@H]3C)cc(-c3cccnc3F)c12 [Example 3, 4-(2-fluoropyridin-3-yl)-5-methyl-2-[(3R)-3-methylmorpholin-4-yl]-8-(1H-pyrazol-5-yl)-1,7-naphthyridine] | 0.00813 | 0.154 |
| Cc1cnc(-c2ccn[nH]2)c2nc(N3CCOC[C@H]3C)cc(-c3ccc(CO)s3)c12 [Example 47, (5-{5-methyl-2-[(3R)-3-methylmorpholin-4-yl]-8-(1H-pyrazol-5-yl)-1,7-naphthyridin-4-yl}thiophen-2-yl)methanol] | 0.00409 |  |
| Cc1cnc(-c2ccn[nH]2)c2nc(N3CCOC[C@H]3C)cc(-c3ccc(C#N)c(F)c3)c12 [Example 48, 2-fluoro-4-{5-methyl-2-[(3R)-3-methylmorpholin-4-yl]-8-(1H-pyrazol-5-yl)-1,7-naphthyridin-4-yl}benzonitrile] | 0.0232 |  |
| Cc1cnc(-c2ccn[nH]2)c2nc(N3CCOC[C@H]3C)cc(-c3ccc(F)nc3)c12 [Example 49, 4-(6-fluoropyridin-3-yl)-5-methyl-2-[(3R)-3-methylmorpholin-4-yl]-8-(1H-pyrazol-5-yl)-1,7-naphthyridine] | 0.0286 |  |
| COc1ncccc1-c1cc(N2CCOC[C@H]2C)nc2c(-c3ccn[nH]3)ncc(C)c12 [Example 50, 4-(2-methoxypyridin-3-yl)-5-methyl-2-[(3R)-3-methylmorpholin-4-yl]-8-(1H-pyrazol-5-yl)-1,7-naphthyridine] | 0.0722 |  |
| Cc1cnc(-c2ccn[nH]2)c2nc(N3CCOC[C@H]3C)cc(-c3ccc(C(N)=O)cc3)c12 [Example 52, 4-{5-methyl-2-[(3R)-3-methylmorpholin-4-yl]-8-(1H-pyrazol-5-yl)-1,7-naphthyridin-4-yl}benzamide] | 0.0302 |  |
| Cc1cnc(-c2ccn[nH]2)c2nc(N3CCOC[C@H]3C)cc(-c3ccc(C(=O)N4CCCC4)cc3)c12 [Example 53, (4-{5-methyl-2-[(3R)-3-methylmorpholin-4-yl]-8-(1H-pyrazol-5-yl)-1,7-naphthyridin-4-yl}phenyl)(pyrrolidin-1-yl)methanone] | 0.0273 |  |
| Cc1cnc(-c2ccn[nH]2)c2nc(N3CCOC[C@H]3C)cc(-c3ccc(C(=O)NCc4ccccc4)cc3)c12 [Example 54, N-benzyl-4-{5-methyl-2-[(3R)-3-methylmorpholin-4-yl]-8-(1H-pyrazol-5-yl)-1,7-naphthyridin-4-yl}benzamide] | 0.0346 |  |
| Cc1cnc(-c2ccn[nH]2)c2nc(N3CCOC[C@H]3C)cc(-c3cccc(C(=O)N(C)C)c3)c12 [Example 55, N,N-dimethyl-3-{5-methyl-2-[(3R)-3-methylmorpholin-4-yl]-8-(1H-pyrazol-5-yl)-1,7-naphthyridin-4-yl}benzamide] | 0.0406 |  |
| COCc1cccc(-c2cc(N3CCOC[C@H]3C)nc3c(-c4ccn[nH]4)ncc(C)c23)c1 [Example 56, 4-[3-(methoxymethyl)phenyl]-5-methyl-2-[(3R)-3-methylmorpholin-4-yl]-8-(1H-pyrazol-5-yl)-1,7-naphthyridine] | 0.0624 |  |
| Cc1cnc(-c2ccn[nH]2)c2nc(N3CCOC[C@H]3C)cc(-c3ccc4c(ccn4C)c3)c12 [Example 57, 5-methyl-4-(1-methyl-1H-indol-5-yl)-2-[(3R)-3-methylmorpholin-4-yl]-8-(1H-pyrazol-5-yl)-1,7-naphthyridine] | 0.05 |  |
| Cc1cnc(-c2ccn[nH]2)c2nc(N3CCOC[C@H]3C)cc(-c3cncc4ccccc34)c12 [Example 58, 4-(isoquinolin-4-yl)-5-methyl-2-[(3R)-3-methylmorpholin-4-yl]-8-(1H-pyrazol-5-yl)-1,7-naphthyridine] | 0.04 |  |
| COc1cncc(-c2cc(N3CCOC[C@H]3C)nc3c(-c4ccn[nH]4)ncc(C)c23)c1 [Example 59, 4-(5-methoxypyridin-3-yl)-5-methyl-2-[(3R)-3-methylmorpholin-4-yl]-8-(1H-pyrazol-5-yl)-1,7-naphthyridine] | 0.0426 |  |
| Cc1cnc(-c2ccn[nH]2)c2nc(N3CCOC[C@H]3C)cc(-c3cccc(OC(C)C)c3)c12 [Example 60, 5-methyl-2-[(3R)-3-methylmorpholin-4-yl]-4-[3-(propan-2-yloxy)phenyl]-8-(1H-pyrazol-5-yl)-1,7-naphthyridine] | 0.132 |  |
| Cc1ccncc1-c1cc(N2CCOC[C@H]2C)nc2c(-c3ccn[nH]3)ncc(C)c12 [Example 61, 5-methyl-2-[(3R)-3-methylmorpholin-4-yl]-4-(4-methylpyridin-3-yl)-8-(1H-pyrazol-5-yl)-1,7-naphthyridine] | 0.0086 |  |
| Cc1cnc(-c2ccn[nH]2)c2nc(N3CCOC[C@H]3C)cc(-c3ccc(C(=O)NC(C)(C)C)cc3)c12 [Example 62, N-tert-butyl-4-{5-methyl-2-[(3R)-3-methylmorpholin-4-yl]-8-(1H-pyrazol-5-yl)-1,7-naphthyridin-4-yl}benzamide] | 0.0182 |  |
| Cc1cnc(-c2ccn[nH]2)c2nc(N3CCOC[C@H]3C)cc(-c3ccc(C(=O)NC4CC4)cc3)c12 [Example 63, N-cyclopropyl-4-{5-methyl-2-[(3R)-3-methylmorpholin-4-yl]-8-(1H-pyrazol-5-yl)-1,7-naphthyridin-4-yl}benzamide] | 0.00787 |  |
| COCc1ccc(-c2cc(N3CCOC[C@H]3C)nc3c(-c4ccn[nH]4)ncc(C)c23)cc1 [Example 65, 4-[4-(methoxymethyl)phenyl]-5-methyl-2-[(3R)-3-methylmorpholin-4-yl]-8-(1H-pyrazol-5-yl)-1,7-naphthyridine] | 0.0123 |  |
| CNC(=O)c1ccc(-c2cc(N3CCOC[C@H]3C)nc3c(-c4ccn[nH]4)ncc(C)c23)cc1 [Example 66, N-methyl-4-{5-methyl-2-[(3R)-3-methylmorpholin-4-yl]-8-(1H-pyrazol-5-yl)-1,7-naphthyridin-4-yl}benzamide] | 0.0129 |  |
